Experimental data from the NIST ThermoML archive (doi:10.1021/acs.jced.8b00103).

Columns and labels:
[1] = refractive index (Na D-line) (dimensionless); conditions: 293.15 K; 101.33 kPa; Liquid; Standard Abbe refractometry
[2] = Liquid; for mass density: 101 kPa, Vibrating tube method; for vapor or sublimation pressure: Ebulliometric method (Recirculating still)
[3] = xn = mol fraction of the nth substance listed; conditions: 101 kPa, Liquid, Vibrating tube method

CC(C)O [propan-2-ol]
Conditions | refractive index
[1] | 1.3774

[2]
Conditions | mass density [kg/m3] | vapor or sublimation pressure [kPa]
333.15 K | 749.23 | 38.5
343.15 K | 739.46 | 61.1
353.15 K | 729.1 | 92.3

CC(C)CO [2-methyl-1-propanol] + CC(C)O
mass density [kg/m3], [3]
Conditions | 333.15 K | 343.15 K | 353.15 K
x2 = 0 | 769.49 | 760.79 | 751.86
x2 = 0.042 | 768.8 | 760.07 | 751.1
x2 = 0.1428 | 767.1 | 758.28 | 749.19
x2 = 0.1913 | 766.26 | 757.39 | 748.25
x2 = 0.2906 | 764.49 | 755.53 | 746.26
x2 = 0.3911 | 762.62 | 753.57 | 744.18
x2 = 0.4444 | 761.6 | 752.49 | 743.03
x2 = 0.4993 | 760.52 | 751.36 | 741.83
x2 = 0.5485 | 759.52 | 750.32 | 740.72
x2 = 0.594 | 758.58 | 749.33 | 739.66
x2 = 0.6911 | 756.5 | 747.14 | 737.33
x2 = 0.7445 | 755.31 | 745.88 | 735.99
x2 = 0.8481 | 752.91 | 743.36 | 733.3
x2 = 0.8925 | 751.85 | 742.24 | 732.1
x2 = 0.9491 | 750.48 | 740.78 | 730.53

CC(C)O [propan-2-ol] + CC(C)CO
[3], x1 = 1
Conditions | mass density [kg/m3]
333.15 K | 749.23
343.15 K | 739.46
353.15 K | 729.1

CC(C)CO [2-methyl-1-propanol]
Conditions | refractive index
[1] | 1.3962

[2]
Conditions | mass density [kg/m3] | vapor or sublimation pressure [kPa]
333.15 K | 769.49 | 12.3
343.15 K | 760.79 | 21
353.15 K | 751.86 | 32.7
